The subject of assay [1] is Helicobacter pylori (CPY-433 F4). The assay is described as follows: Bacteria eradication effect of urease inhibitor (in vivo) in infected mice. Conditions: male ICR mice, 10 mg/kg p.o. twice daily, lansoprazole 30 mg/kg s.c. once daily before first dose.
The target in assay [2] is T1, Helicobacter pylori-derived urease (Helicobacter pylori, UniProt P69996).
T1 construct: an urease solution prepared from Helicobacter pylori; endogenous in cells
The assay is described as follows: Screening of urease inhibitors (ammonia yield from urea). The format is biochemical. The method, then:
Screening of Urease Inhibitors
One hundred (100) μl of 100 mM Bis-Tris buffer (pH 6.5) and 60 μl of an urease solution prepared from Helicobacter pylori were added to 20 μl of a test drug dissolved in 0.1% dimethylformamide solution. The mixture was incubated at room temperature for 30 minutes, and then 20 μl of 100 mM urea was added. The mixture was kept at room temperature for 10 minutes, and then the yielded ammonia in the incubation mixture was measured using a commercial test kit (Ammonia Test Wako®; Wako Pure Chemical). The percent inhibition against the yield of ammonia in the solvent addition group was calculated to obtain the IC50 value.

The test system of assay [3] is Helicobacter pylori CPY 433 F4. Kind of assay: Bacteria eradication effect of flurofamide in infected mice. Conditions: male Crj:ICR mice; 100 mg/kg p.o. twice daily, 7 days, in 0.5% methylcellulose containing 1% sodium bicarbonate; * p<0.05 (chi^2 test); control 0/4. The format is in vivo. The method, then:
Bacteria Eradication Effect of Flurofamide
To 5-week-aged male Crj:ICR mice previously fasted for 30 hours, Helicobacter pylori CPY 433 F4 was inoculated intragastrically at 10^7 CFU per mouse. One week after the infection, a test compound which was suspended in 0.5% methylcellulose containing 1% sodium bicarbonate was orally administered at 100 mg/kg twice daily for 7 days. On the next day after the final administration, the stomach of the infected mouse was excised and homogenated. A series of 10-fold dilutions were inoculated to modified Skirrow medium supplemented with activated charcoal and incubated at 37° C. for 4 days under slightly aerobic conditions. The bacteria eradication effect was determined by investigating whether bacterial growth was seen or not.

[4] abbreviates: 4 days for therapy, control 0/5.

pIC50: −log10 of the molar value. Like-named read-outs stand apart in the source and are kept apart here.

T1 sequence (P69996 whole entry, looked up): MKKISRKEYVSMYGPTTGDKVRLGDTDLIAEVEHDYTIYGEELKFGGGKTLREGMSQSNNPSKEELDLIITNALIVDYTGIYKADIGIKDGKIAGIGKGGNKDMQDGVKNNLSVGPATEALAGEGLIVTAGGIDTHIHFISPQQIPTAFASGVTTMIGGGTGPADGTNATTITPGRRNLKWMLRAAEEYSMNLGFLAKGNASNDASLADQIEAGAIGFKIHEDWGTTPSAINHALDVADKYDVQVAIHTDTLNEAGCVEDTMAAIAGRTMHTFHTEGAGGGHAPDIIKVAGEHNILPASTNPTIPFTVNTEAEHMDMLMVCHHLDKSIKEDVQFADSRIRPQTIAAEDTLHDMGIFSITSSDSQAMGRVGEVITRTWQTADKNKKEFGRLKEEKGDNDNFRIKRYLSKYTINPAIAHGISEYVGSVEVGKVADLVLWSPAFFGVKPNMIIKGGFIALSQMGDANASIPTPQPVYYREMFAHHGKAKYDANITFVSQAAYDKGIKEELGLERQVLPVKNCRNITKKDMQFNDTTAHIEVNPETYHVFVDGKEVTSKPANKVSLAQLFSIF

On to `N#Cc1ccc(C(=O)NP(N)(N)=O)s1` [Example 12, N-(Diaminophosphinyl)-5-cyano-2-thiophenecarboxamide], for which the “Eradication Rate” value in assay [1] (2 days for therapy) is 1/5. Further, the pIC50 in assay [2] was 8.44.

Consider `NP(N)(=O)NC(=O)c1ccsc1Br` [Example 26, N-(Diaminophosphinyl)-2-bromo-3-thiophenecarboxamide], for which, in assay [1] (2 days for therapy), the “Eradication Rate” value is recorded as 2/5. The same compound gave a pIC50 in assay [2] of 8.89.

As for `Cc1csc(C(=O)NP(N)(N)=O)c1` [Example 28, N-(Diaminophosphinyl)-4-methyl-2-thiophenecarboxamide], the “Eradication Rate” value in assay [1] (2 days for therapy) is reported as 1/5. This compound showed a pIC50 in assay [2] of 8.82.

As to `NP(N)(=O)NC(=O)c1ccoc1` [Reference Example 29, N-(Diaminophosphinyl)-3-furancarboxamide], in assay [1] (setting [4]), the “Eradication Rate” value was 2/5. The pIC50 in assay [2] was 8.23.

As for `NP(N)(=O)NC(=O)c1csc(Cl)c1` [Example 30, N-(Diaminophosphinyl)-5-chloro-3-thiophenecarboxamide], the “Eradication Rate” value in assay [1] (2 days for therapy) is given as 1/5. Further, in assay [2], the pIC50 was 8.37.

Regarding `NP(N)(=O)NC(=O)c1csc(Br)c1` [Example 11, N-(Diaminophosphinyl)-5-bromo-3-thiophenecarboxamide], in assay [1] (2 days for therapy), the “Eradication Rate” value was 1/5. Moreover, in assay [2], the pIC50 is 8.38.

Regarding `NP(N)(=O)NC(=O)c1coc(Cl)c1` [Example 46, N-(Diaminophosphinyl)-5-chloro-3-furancarboxamide], the “Eradication Rate” value in assay [1] (2 days for therapy) is 1/5. Moreover, in assay [2], the pIC50 was 8.24.

Regarding `NP(N)(=O)NC(=O)c1ccoc1Cl` [Example 45, N-(Diaminophosphinyl)-2-chloro-3-furancarboxamide], the “Eradication Rate” value in assay [1] (2 days for therapy) is 1/5. Moreover, in assay [2], the negative-log IC50 (pIC50) was 8.85.

For the compound `NP(N)(=O)NC(=O)c1ccco1` [Reference Example 25, N-(Diaminophosphinyl)-2-furancarboxamide], the “Eradication Rate” value in assay [1] (setting [4]) is on record as 1/5. The pIC50 in assay [2] is 8.72.

On to `Cc1ccc(C(=O)NP(N)(N)=O)s1` [Example 3, N-(Diaminophosphinyl)-5-methyl-2-thiophenecarboxamide], for which, in assay [1] (setting [4]), the “Eradication Rate” value was 2/5. In assay [2], the pIC50 is 8.26.

For `NP(N)(=O)NC(=O)c1sccc1C(F)F` [Example 19, N-(Diaminophosphinyl)-3-difluoromethyl-2-thiophenecarboxamide], in assay [1] (2 days for therapy), the “Eradication Rate” value is on record as 1/5. For the same compound, the pIC50 in assay [2] is 8.34.

As to `NP(N)(=O)NC(=O)c1cc(Cl)sc1Cl` [Example 25, N-(Diaminophosphinyl)-2,5-dichloro-3-thiophenecarboxamide], the “Eradication Rate” value in assay [1] (2 days for therapy) was 1/5. The compound further gave a negative logarithm of the IC50 (pIC50) in assay [2] of 8.96.

Regarding `NP(N)(=O)NC(=O)COc1ccc(F)cc1` [Example 54, N-(Diaminophosphinyl)-4-fluorophenoxyacetamide], the “Eradication Rate” value in assay [1] (3 days for therapy) is 1/5. For the same compound, in assay [2], the pIC50 is 8.48.

Regarding `CC(=O)c1ccc(C(=O)NP(N)(N)=O)s1` [Example 17, N-(Diaminophosphinyl)-5-acetyl-2-thiophenecarboxamide], the “Eradication Rate” value in assay [1] (2 days for therapy) is on record as 1/5. Also, the pIC50 in assay [2] was 8.09.

As to `NP(N)(=O)NC(=O)c1coc(Br)c1` [Example 41, N-(Diaminophosphinyl)-5-bromo-3-furancarboxamide], the “Eradication Rate” value in assay [1] (2 days for therapy) is given as 1/5. The compound further gave a pIC50 in assay [2] of 8.11.

Regarding `Cc1cc(C(=O)NP(N)(N)=O)c(C)s1` [Example 32, N-(Diaminophosphinyl)-2,5-dimethyl-3-thiophenecarboxamide], the “Eradication Rate” value in assay [1] (2 days for therapy) was 2/5. The compound further showed a pIC50 in assay [2] of 8.06.

In the case of `Cc1sccc1C(=O)NP(N)(N)=O` [Example 15, N-(Diaminophosphinyl)-2-methyl-3-thiophenecarboxamide], the “Eradication Rate” value in assay [1] (2 days for therapy) was 2/5. The pIC50 in assay [2] is 8.77.

`CCc1ccc(C(=O)NP(N)(N)=O)s1` [Example 9, N-(Diaminophosphinyl)-5-ethyl-2-thiophenecarboxamide]: in assay [1] (2 days for therapy), the “Eradication Rate” value is 1/5. Further, the pIC50 in assay [2] was 7.89.

Take `CCc1ccc(C(=O)NP(N)(N)=O)o1` [Example 44, N-(Diaminophosphinyl)-5-ethyl-2-furancarboxamide]: the “Eradication Rate” value in assay [1] (2 days for therapy) is 1/5. For the same compound, the negative-log IC50 (pIC50) in assay [2] was 7.85.

In the case of `NP(N)(=O)NC(=O)c1ccc([N+](=O)[O-])o1` [Reference Example 30, N-(Diaminophosphiny1)-5-nitro-2-furancarboxamide], in assay [1] (3 days for therapy), the “Eradication Rate” value was 2/5. In assay [2], the pIC50 was 8.37.

As to `NP(N)(=O)NC(=O)c1cccc([N+](=O)[O-])c1` [Reference Example 23, N-(Diaminophosphinyl)-3-nitrobenzamide], the “Eradication Rate” value in assay [1] (setting [4]) is listed as 1/5. This compound showed a pIC50 in assay [2] of 8.24.

Take `N#Cc1ccc(C(=O)NP(N)(N)=O)cc1` [Reference Example 17, N-(Diaminophosphinyl)-4-cyanobenzamide]: the “Eradication Rate” value in assay [1] (setting [4]) is given as 1/5. For the same compound, in assay [2], the negative-log IC50 (pIC50) was 8.27.

Turning to `N#Cc1ccsc1C(=O)NP(N)(N)=O` [Example 23, N-(Diaminophosphinyl)-3-cyano-2-thiophenecarboxamide], the “Eradication Rate” value in assay [1] (2 days for therapy) is reported as 1/5. In addition, the pIC50 in assay [2] is 8.66.

As for `NP(N)(=O)NC(=O)c1ccc(F)cc1` [Reference Example 1, N-(Diaminophosphinyl)-4-fluorobenzamide, reference compound], the pIC50 in assay [2] (Bis-Tris pH 6.5, room temperature, 30 min preincubation, 10 min with urea, read-out: IC50, inhibitory effect against Helicobacter pylori-derived urease) was 8.30. The “Eradication Rate” value in assay [3] is given as 4/5.
